# Legend:
# Type in all cases: cell-based
# Conditions in all cases: for GI50: read-out: GI50
# COLO 205 = assay: NCI DTP in-vitro dose response, Colon Cancer
# HCC-2998 = assay: NCI DTP in-vitro dose response, Colon Cancer
# HCT-116 = assay: NCI DTP in-vitro dose response, Colon Cancer
# HCT-15 = assay: NCI DTP in-vitro dose response, Colon Cancer
# HT29 = assay: NCI DTP in-vitro dose response, Colon Cancer
# KM12 = assay: NCI DTP in-vitro dose response, Colon Cancer
# SW-620 = assay: NCI DTP in-vitro dose response, Colon Cancer
# SF-268 = assay: NCI DTP in-vitro dose response, CNS Cancer
# SF-295 = assay: NCI DTP in-vitro dose response, CNS Cancer
# SF-539 = assay: NCI DTP in-vitro dose response, CNS Cancer
# SNB-19 = assay: NCI DTP in-vitro dose response, CNS Cancer
# SNB-75 = assay: NCI DTP in-vitro dose response, CNS Cancer
# U251 = assay: NCI DTP in-vitro dose response, CNS Cancer
smiles,measurement,setting,value
CCc1nc2ccc3c(c2[nH]1)C(=O)c1ccccc1C3=O [TABLE 4-3],CC50,COLO 205,> 100 µM
same,TGI,COLO 205,>1.00E−4
same,Percent Growth,COLO 205; Log10 Concentration −4.0,9%
same,Percent Growth,COLO 205; Log10 Concentration −5.0,41%
same,Percent Growth,COLO 205; Log10 Concentration −6.0,85%
same,Percent Growth,COLO 205; Log10 Concentration −7.0,93%
same,Percent Growth,COLO 205; Log10 Concentration −8.0,93%
same,GI50,COLO 205,6.36 µM
same,CC50,HCC-2998,> 100 µM
same,TGI,HCC-2998,>1.00E−4
same,Percent Growth,HCC-2998; Log10 Concentration −4.0,22%
same,Percent Growth,HCC-2998; Log10 Concentration −5.0,59%
same,Percent Growth,HCC-2998; Log10 Concentration −6.0,90%
same,Percent Growth,HCC-2998; Log10 Concentration −7.0,94%
same,Percent Growth,HCC-2998; Log10 Concentration −8.0,88%
same,GI50,HCC-2998,17.4 µM
same,CC50,HCT-116,> 100 µM
same,TGI,HCT-116,>1.00E−4
same,Percent Growth,HCT-116; Log10 Concentration −4.0,11%
same,Percent Growth,HCT-116; Log10 Concentration −5.0,42%
same,Percent Growth,HCT-116; Log10 Concentration −6.0,78%
same,Percent Growth,HCT-116; Log10 Concentration −7.0,95%
same,Percent Growth,HCT-116; Log10 Concentration −8.0,92%
same,GI50,HCT-116,6.1 µM
same,CC50,HCT-15,> 100 µM
same,TGI,HCT-15,>1.00E−4
same,Percent Growth,HCT-15; Log10 Concentration −4.0,8%
same,Percent Growth,HCT-15; Log10 Concentration −5.0,27%
same,Percent Growth,HCT-15; Log10 Concentration −6.0,69%
same,Percent Growth,HCT-15; Log10 Concentration −7.0,93%
same,Percent Growth,HCT-15; Log10 Concentration −8.0,90%
same,GI50,HCT-15,2.82 µM
same,CC50,HT29,> 100 µM
same,TGI,HT29,>1.00E−4
same,Percent Growth,HT29; Log10 Concentration −4.0,11%
same,Percent Growth,HT29; Log10 Concentration −5.0,48%
same,Percent Growth,HT29; Log10 Concentration −6.0,88%
same,Percent Growth,HT29; Log10 Concentration −7.0,100%
same,Percent Growth,HT29; Log10 Concentration −8.0,94%
same,GI50,HT29,8.84 µM
same,CC50,KM12,> 100 µM
same,TGI,KM12,>1.00E−4
same,Percent Growth,KM12; Log10 Concentration −4.0,13%
same,Percent Growth,KM12; Log10 Concentration −5.0,43%
same,Percent Growth,KM12; Log10 Concentration −6.0,89%
same,Percent Growth,KM12; Log10 Concentration −7.0,94%
same,Percent Growth,KM12; Log10 Concentration −8.0,98%
same,GI50,KM12,7.15 µM
same,CC50,SW-620,> 100 µM
same,TGI,SW-620,>1.00E−4
same,Percent Growth,SW-620; Log10 Concentration −4.0,6%
same,Percent Growth,SW-620; Log10 Concentration −5.0,39%
same,Percent Growth,SW-620; Log10 Concentration −6.0,89%
same,Percent Growth,SW-620; Log10 Concentration −7.0,96%
same,Percent Growth,SW-620; Log10 Concentration −8.0,99%
same,GI50,SW-620,5.97 µM
CCc1nc2ccc3c(c2[nH]1)C(=O)c1ccccc1C3=O [TABLE 4-4],CC50,SF-268,> 100 µM
same,TGI,SF-268,>1.00E−4
same,Percent Growth,SF-268; Log10 Concentration −4.0,28%
same,Percent Growth,SF-268; Log10 Concentration −5.0,57%
same,Percent Growth,SF-268; Log10 Concentration −6.0,88%
same,Percent Growth,SF-268; Log10 Concentration −7.0,96%
same,Percent Growth,SF-268; Log10 Concentration −8.0,87%
same,GI50,SF-268,17.7 µM
same,CC50,SF-295,> 100 µM
same,TGI,SF-295,>1.00E−4
same,Percent Growth,SF-295; Log10 Concentration −4.0,9%
same,Percent Growth,SF-295; Log10 Concentration −5.0,35%
same,Percent Growth,SF-295; Log10 Concentration −6.0,69%
same,Percent Growth,SF-295; Log10 Concentration −7.0,90%
same,Percent Growth,SF-295; Log10 Concentration −8.0,88%
same,GI50,SF-295,3.65 µM
same,CC50,SF-539,> 100 µM
same,TGI,SF-539,>1.00E−4
same,Percent Growth,SF-539; Log10 Concentration −4.0,13%
same,Percent Growth,SF-539; Log10 Concentration −5.0,46%
same,Percent Growth,SF-539; Log10 Concentration −6.0,80%
same,Percent Growth,SF-539; Log10 Concentration −7.0,83%
same,Percent Growth,SF-539; Log10 Concentration −8.0,81%
same,GI50,SF-539,7.46 µM
same,CC50,SNB-19,> 100 µM
same,TGI,SNB-19,>1.00E−4
same,Percent Growth,SNB-19; Log10 Concentration −4.0,39%
same,Percent Growth,SNB-19; Log10 Concentration −5.0,61%
same,Percent Growth,SNB-19; Log10 Concentration −6.0,92%
same,Percent Growth,SNB-19; Log10 Concentration −7.0,94%
same,Percent Growth,SNB-19; Log10 Concentration −8.0,84%
same,GI50,SNB-19,30.9 µM
same,CC50,SNB-75,> 100 µM
same,TGI,SNB-75,>1.00E−4
same,Percent Growth,SNB-75; Log10 Concentration −4.0,17%
same,Percent Growth,SNB-75; Log10 Concentration −5.0,41%
same,Percent Growth,SNB-75; Log10 Concentration −6.0,49%
same,Percent Growth,SNB-75; Log10 Concentration −7.0,66%
same,Percent Growth,SNB-75; Log10 Concentration −8.0,66%
same,GI50,SNB-75,0.872 µM
same,CC50,U251,> 100 µM
same,TGI,U251,>1.00E−4
same,Percent Growth,U251; Log10 Concentration −4.0,27%
same,Percent Growth,U251; Log10 Concentration −5.0,49%
same,Percent Growth,U251; Log10 Concentration −6.0,84%
same,Percent Growth,U251; Log10 Concentration −7.0,96%
same,Percent Growth,U251; Log10 Concentration −8.0,94%
same,GI50,U251,9.58 µM
O=C1c2ccccc2C(=O)c2c1ccc1nccnc21 [TABLE 5-3],CC50,COLO 205,> 100 µM
same,TGI,COLO 205,2.84E−5
same,Percent Growth,COLO 205; Log10 Concentration −4.0,−35%
same,Percent Growth,COLO 205; Log10 Concentration −5.0,29%
same,Percent Growth,COLO 205; Log10 Concentration −6.0,74%
same,Percent Growth,COLO 205; Log10 Concentration −7.0,86%
same,Percent Growth,COLO 205; Log10 Concentration −8.0,92%
same,GI50,COLO 205,3.4 µM
same,CC50,HCC-2998,> 100 µM
same,TGI,HCC-2998,8.35E−5
same,Percent Growth,HCC-2998; Log10 Concentration −4.0,−3%
same,Percent Growth,HCC-2998; Log10 Concentration −5.0,40%
same,Percent Growth,HCC-2998; Log10 Concentration −6.0,52%
same,Percent Growth,HCC-2998; Log10 Concentration −7.0,94%
same,Percent Growth,HCC-2998; Log10 Concentration −8.0,97%
same,GI50,HCC-2998,1.4 µM
same,CC50,HCT-116,> 100 µM
same,TGI,HCT-116,>1.00E−4
same,Percent Growth,HCT-116; Log10 Concentration −4.0,3%
same,Percent Growth,HCT-116; Log10 Concentration −5.0,55%
same,Percent Growth,HCT-116; Log10 Concentration −6.0,91%
same,Percent Growth,HCT-116; Log10 Concentration −7.0,99%
same,Percent Growth,HCT-116; Log10 Concentration −8.0,96%
same,GI50,HCT-116,12.3 µM
same,CC50,HCT-15,> 100 µM
same,TGI,HCT-15,8.43E−5
same,Percent Growth,HCT-15; Log10 Concentration −4.0,−3%
same,Percent Growth,HCT-15; Log10 Concentration −5.0,37%
same,Percent Growth,HCT-15; Log10 Concentration −6.0,77%
same,Percent Growth,HCT-15; Log10 Concentration −7.0,84%
same,Percent Growth,HCT-15; Log10 Concentration −8.0,88%
same,GI50,HCT-15,4.63 µM
same,CC50,HT29,> 100 µM
same,TGI,HT29,>1.00E−4
same,Percent Growth,HT29; Log10 Concentration −4.0,1%
same,Percent Growth,HT29; Log10 Concentration −5.0,46%
same,Percent Growth,HT29; Log10 Concentration −6.0,74%
same,Percent Growth,HT29; Log10 Concentration −7.0,95%
same,Percent Growth,HT29; Log10 Concentration −8.0,99%
same,GI50,HT29,7.01 µM
same,CC50,KM12,> 100 µM
same,TGI,KM12,4.95E−5
same,Percent Growth,KM12; Log10 Concentration −4.0,−18%
same,Percent Growth,KM12; Log10 Concentration −5.0,40%
same,Percent Growth,KM12; Log10 Concentration −6.0,76%
same,Percent Growth,KM12; Log10 Concentration −7.0,90%
same,Percent Growth,KM12; Log10 Concentration −8.0,89%
same,GI50,KM12,5.26 µM
same,CC50,SW-620,> 100 µM
same,TGI,SW-620,3.08E−5
same,Percent Growth,SW-620; Log10 Concentration −4.0,−26%
same,Percent Growth,SW-620; Log10 Concentration −5.0,25%
same,Percent Growth,SW-620; Log10 Concentration −6.0,58%
same,Percent Growth,SW-620; Log10 Concentration −7.0,87%
same,Percent Growth,SW-620; Log10 Concentration −8.0,94%
same,GI50,SW-620,1.71 µM
O=C1c2ccccc2C(=O)c2c1ccc1nccnc21 [TABLE 5-4],CC50,SF-268,> 100 µM
same,TGI,SF-268,>1.00E−4
same,Percent Growth,SF-268; Log10 Concentration −4.0,1%
same,Percent Growth,SF-268; Log10 Concentration −5.0,34%
same,Percent Growth,SF-268; Log10 Concentration −6.0,86%
same,Percent Growth,SF-268; Log10 Concentration −7.0,92%
same,Percent Growth,SF-268; Log10 Concentration −8.0,96%
same,GI50,SF-268,4.98 µM
same,CC50,SF-295,> 100 µM
same,TGI,SF-295,3.23E−5
same,Percent Growth,SF-295; Log10 Concentration −4.0,−24%
same,Percent Growth,SF-295; Log10 Concentration −5.0,25%
same,Percent Growth,SF-295; Log10 Concentration −6.0,95%
same,Percent Growth,SF-295; Log10 Concentration −7.0,83%
same,Percent Growth,SF-295; Log10 Concentration −8.0,90%
same,GI50,SF-295,4.35 µM
same,CC50,SF-539,> 100 µM
same,TGI,SF-539,5.37E−5
same,Percent Growth,SF-539; Log10 Concentration −4.0,−9%
same,Percent Growth,SF-539; Log10 Concentration −5.0,23%
same,Percent Growth,SF-539; Log10 Concentration −6.0,64%
same,Percent Growth,SF-539; Log10 Concentration −7.0,88%
same,Percent Growth,SF-539; Log10 Concentration −8.0,90%
same,GI50,SF-539,2.18 µM
same,CC50,SNB-19,> 100 µM
same,TGI,SNB-19,>1.00E−4
same,Percent Growth,SNB-19; Log10 Concentration −4.0,4%
same,Percent Growth,SNB-19; Log10 Concentration −5.0,57%
same,Percent Growth,SNB-19; Log10 Concentration −6.0,90%
same,Percent Growth,SNB-19; Log10 Concentration −7.0,93%
same,Percent Growth,SNB-19; Log10 Concentration −8.0,94%
same,GI50,SNB-19,13.4 µM
same,CC50,SNB-75,> 100 µM
same,TGI,SNB-75,>1.00E−4
same,Percent Growth,SNB-75; Log10 Concentration −4.0,11%
same,Percent Growth,SNB-75; Log10 Concentration −5.0,53%
same,Percent Growth,SNB-75; Log10 Concentration −6.0,76%
same,Percent Growth,SNB-75; Log10 Concentration −7.0,87%
same,Percent Growth,SNB-75; Log10 Concentration −8.0,83%
same,GI50,SNB-75,11.9 µM
same,CC50,U251,> 100 µM
same,TGI,U251,4.29E−5
same,Percent Growth,U251; Log10 Concentration −4.0,−21%
same,Percent Growth,U251; Log10 Concentration −5.0,35%
same,Percent Growth,U251; Log10 Concentration −6.0,89%
same,Percent Growth,U251; Log10 Concentration −7.0,93%
same,Percent Growth,U251; Log10 Concentration −8.0,96%
same,GI50,U251,5.38 µM

# — patent US8445492B2, “Method for inhibiting growth of cancer cells and cell telomere and diseases of cell proliferation by using heteroannelated anthraquinone derivative compounds” (National Defense Medical Center, priority 2008, dated 2013)
